Patent publication US20190119348A1, “PARATHYROID HORMONE RECEPTOR 1 ANTAGONIST AND INVERSE AGONIST POLYPEPTIDES AND METHODS OF THEIR USE” (The General Hospital Corporation, priority 2016, published 2019)
Where a SMILES comes first, the peptide text is derived from it. [ ]: non-standard residue; d: D form.

Columns and labels:
PTHR1 [1] = target: T1, PTHR1 (Homo sapiens, UniProt Q03431); assay: Antagonism of PTH(1-34)-induced cAMP response (GloSensor) in GP-2.3 cells; format: cell-based; conditions: inhibition of PTH(1-34)-induced maximum response, read-out: corresponding nanomolar value of pIC50 (Table 4) (converted)
T1 construct: expressed in transfected cells; host or cells: GP-2.3 (HEK-293 stably transfected with hPTHR1 and GloSensor)
T1 sequence (Q03431 27-593): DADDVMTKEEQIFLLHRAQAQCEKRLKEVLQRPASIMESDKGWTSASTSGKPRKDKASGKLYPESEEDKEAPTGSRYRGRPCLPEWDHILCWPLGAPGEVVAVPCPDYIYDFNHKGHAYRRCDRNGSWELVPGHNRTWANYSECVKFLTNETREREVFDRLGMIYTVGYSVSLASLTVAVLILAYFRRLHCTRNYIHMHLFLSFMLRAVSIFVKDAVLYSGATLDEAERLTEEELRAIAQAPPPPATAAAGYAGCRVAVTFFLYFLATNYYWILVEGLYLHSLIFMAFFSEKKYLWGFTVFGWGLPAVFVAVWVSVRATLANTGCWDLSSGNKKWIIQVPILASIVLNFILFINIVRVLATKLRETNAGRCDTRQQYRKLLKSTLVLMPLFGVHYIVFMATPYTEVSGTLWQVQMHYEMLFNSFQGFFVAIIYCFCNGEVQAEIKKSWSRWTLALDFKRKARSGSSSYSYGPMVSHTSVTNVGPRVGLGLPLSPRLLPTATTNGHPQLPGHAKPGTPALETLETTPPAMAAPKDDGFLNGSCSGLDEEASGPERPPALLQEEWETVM
Description: (§1) cAMP signaling was assessed in the HEK293-derived or SaOS2-derived cell lines stably expressing the luciferase-based GloSensor™ cAMP reporter (Hattersley et al., Paper presented at: Novel Signaling Mechanisms and Bone Cell Biology 2014; Binkowski et al., Methods in molecular biology. 756:263-271). HEK-293 cells were further transfected to stably express the hPTHR1, hPTHR1-H223R, or hPTHR1-T410P. The cells were seeded into 96-well white plates and were assayed 24 to 48 hours post-confluency. Assays were performed at room temperature in CO2-independent culture media (Life Technologies, Corp., Carlsbad, Calif.) containing 0.1% BSA (CIDB). The cells were pre-loaded with luciferin (0.5 mM in CIDB) for 15 minutes, then PTH peptides were added at varying concentrations. cAMP-dependent luminescence was measured at two-minute intervals using a PerkinElmer Envision plate reader. The time at which maximum luminescence (cps) observed with agonist alone, typically at 10-20 minutes after agonist addition, was used to obtain data from wells containing antagonist with or without agonist, to thus generate antagonist ligand dose-response curves. The resulting cps values were then plotted against ligand concentration using GraphPad Prism 7.0 software and a four-parameter logistics curve fitting equation, which yielded parameters of inhibitory potency (pIC50).
Pharmacological properties of the ligands were assessed in cells expressing the PTHR1 and the GloSensor™ cAMP reporter. The assays used GP-2.3 cells, derived from HEK293 cells by stable transfection with the hPTHR1 and GloSensor™, as well as SGS-72 cells, which are derived from the human osteosarcoma cell line, Saos-2, in which is endogenously expressed the hPTHR1, by stable transfection with GloSensor™. Binding of representative polypeptides to the PTHR1 was assessed in GP-2.3 cells by radioligand competition methods (FIGS. 1A and 1B, Table 3).
[…] concentration of antagonist that inhibited the maximum response to PTH(1-34)-induced in the absence of antagonist (at ˜40 minutes) is reported in units of -log M (pIC50), and the corresponding nanomolar value is shown below each pIC50 value. Data are means of the number of experiments indicated (n). The PTH(1-34)-induced maximum luminescence was ˜80,000 cps and the basal was ˜1,000 cps. TMR indicates Lys13 modified at epsilon amino function with TMR, P vs. inhibition by dW12,Y34-bPTH(7-34).

PTHR1 [2] = target: T1, PTHR1; assay: Residual agonist activity, cAMP luminescence in GP-2.3 cells; format: cell-based; conditions: ligands applied directly to GP-2.3 cells
Description: as §1

IC50 (PTHR1 [1]): 101 nM
residual agonist activity compared with dTrp^12-PTH(7-34)-1894 (PTHR1 [2]): less residual agonist activity
SMILES: CC[C@H](C)[C@H](N)C(=O)N[C@@H](CCC(N)=O)C(=O)N[C@@H](CC(C)C)C(=O)N[C@@H](CCSC)C(=O)N[C@@H](Cc1c[nH]cn1)C(=O)N[C@@H](CCC(N)=O)C(=O)N[C@@H](CCCNC(=N)N)C(=O)N[C@H](Cc1c[nH]c2ccccc12)C(=O)N[C@@H](CCCCN)C(=O)N[C@@H](Cc1c[nH]c2ccccc12)C(=O)N[C@H](C(=O)N[C@@H](CCC(N)=O)C(=O)N[C@@H](CC(=O)O)C(=O)N[C@@H](C)C(=O)N[C@@H](CCCNC(=N)N)C(=O)N[C@@H](CCCNC(=N)N)C(=O)N[C@@H](CCCNC(=N)N)C(=O)N[C@@H](C)C(=O)N[C@@H](Cc1c[nH]c2ccccc12)C(=O)N[C@@H](CC(C)C)C(=O)N[C@@H](Cc1c[nH]cn1)C(=O)N[C@@H](CCCCN)C(=O)N[C@@H](CC(C)C)C(=O)N[C@H](C(=O)N[C@@H](C)C(=O)N[C@@H](CCC(=O)O)C(=O)N[C@H](C(=O)N[C@@H](Cc1c[nH]cn1)C(=O)N[C@H](C(=O)N[C@@H](C)C(=O)N[C@@H](CCC(=O)O)C(=O)N[C@H](C(N)=O)[C@@H](C)CC)[C@@H](C)O)[C@@H](C)CC)[C@@H](C)CC)[C@@H](C)CC [compound 1949, dW12, W23-LA-PTH(5-36)] (H-IQLMHQR[dW]KWIQDARRRAWLHKLIAEIHTAEI-NH2; N-terminus assumed)
